Results published in patent US20240306641A1, “P-BOOSTER” (EUROCHEM ANTWERPEN, priority 2021, published 2024).

Key:
Assay type in all cases: in vivo
[1] = tested on: Arabidopsis thaliana Columbia-0; test: Root hair number and length quantification, Arabidopsis vertical plate
Method: (§1) All Arabidopsis plant experiments were performed using the Arabidopsis thaliana Columbia-0 background. The Arabidopsis pSPX1::GUS line is described in the […] 2008, 54: 965-975. For rice, the cultivar Nipponbare was used. For maize, the cultivars DKC 2931 and 8104 were used for regular pot experiments and sand-based pot experiments, respectively. For soybean, the cultivar Primus was used. […] The medium was solidified due to the addition of 0.6% Gelrite, unless stated otherwise. In case of vertical plates (root length and root hair measurements), the medium was supplied with 0.5% of sucrose and 1 μM (low phosphate, 1 μM KH2PO4, 9.9 mM KCl), 10 μM (low phosphate 10 μM KH2PO4, 9.9 mM KCl) or 1.25 mM KH2PO4 (high phosphate). Arabidopsis seeds were stratified for 2 days at 4° C. before germination. Seedlings were germinated in climate-controlled growth chambers at 22° C. under continuous light ([…] m^−2 s^−1). Husked rice seeds were germinated on wetted Whatman paper for 2 days at 37° C. and then transferred to Sterivent boxes or square Petri dishes with solid medium. Maize and soybean seeds were wetted 24 hours at room temperature prior to sowing in pots.
Roots were imaged using a stereomicroscope or a VHX-6000. Number and length of the root hairs parallel to the medium surface was determined at 4 to 6 mm above the root meristem. Root hair length was measured using the ImageJ software.

maize cultivar DKC 2931 = test: Regular maize pot experiment (potting soil); settings: low phosphate, 10 μM compound
Method: as §1
(§2) Regular Arabidopsis, soybean and maize pot experiments used an unfertilized potting soil, which was supplemented at the start of the experiment with 50 ml H2O containing 0.25 g/l NH4NO3 and 0.44 g/l (high phosphate) or no (maize and soybean) or 0.11 g/l KH2PO (Arabidopsis) for low phosphate conditions. For the sand-based maize pot experiment, sand was supplemented with 50 ml H2O containing 0.25 g/l NH4NO3 and 0.38 g/l (high phosphate) or 0.02 g/l (low phosphate) KH2PO4. Potassium was balanced via addition of KCl. Compound concentration was 10 μM, calculated based on the total water content after watering, and was added at the start of the experiment (Arabidopsis) or once a week (maize). Indexed chlorophyll contents were received via a SPAD 502 Plus Chlorophyll Meter. All parameters in the sand experiment, except the rate of leaf 4 (measured the first 4 days after emergence), were measured 19 days after sowing. Measurements in the pot experiments with potting soil were done after 4 weeks of growth, except for leaf 5, which was measured at 26 days. The long term maize pot experiment was performed on the automated Phenovision platform (see Mertens et al, 2021, https://doi.org/10.3389/fpls.2021.640914) with maize cultivars B104 and DKC2931. End point measurements occurred after 90 days (B104) or 70 days (DKC2931). Plants were grown on an unfertilized potting soil, which was fertilized bi-weekly with 50 mL modified Hoagland solution (2.5× concentrated; but with 0.25 mM KH2PO4).

[2] = tested on: Arabidopsis thaliana Columbia-0; test: Arabidopsis pot experiment (rosette size, soil phosphate, anthocyanin)
Method: as §2, with “KH2PO4). Col-0 ecotype Arabidopsis seeds were sown in 96-well plates containing 150 μl of low phosphate modMS liquid medium containing 1% of sucrose. Compounds was added in 50 μM concentration (1% DMSO). 7 days after germination, plates were scanned using a flatbed scanner (EPSON Expression 11000XL) and wells containing non-germinated seedlings were excluded from the following analysis. Plants were removed from each well and 50 μl of medium was recovered from each well and used for molybdenum blue staining as described in Plant Physiology 2008, 146:1673-1686. To measure the phosphate level in soil, Olsen P extraction was used on 1 g of air dried soil, 500 ul of extract was used for molybdenum blue staining as described in The Plant cell 2013, 25:1641-1656. Values were expressed relative to the low phosphate control. Col-0 ecotype Arabidopsis seeds were sown in 96-well plates containing 150 μl of low phosphate modMS liquid medium containing 1% of sucrose. […] Extraction and quantification of anthocyanin levels was carried out according to The Plant cell 2013, 25:1641-1656. Anthocyanin levels were quantified by measuring absorption at 530 and 657 nm using a spectrophotometer and normalized to fresh weight input, and expressed relative to the low phosphate control. […]” for “KH2PO4).”

[3] = Arabidopsis vertical plate, high phosphate

SMILES: CCN(CCCNc1ncnc2nc(N)ccc12)c1ccccc1 [Example 1]
- activity at 1 µM ([1]; Arabidopsis thaliana, 1 μM compound, read-out: Total root hair length per root (in % compared to the control)): 749%
- Average root hair length per root in high phosphate conditions [1, 3]: 0.26 mm
- Root hair number in high phosphate conditions (one plane in 2 mm region) [1, 3]: 9
- Total root hair length per root in high phosphate conditions [1, 3]: 0.26 cm
- Plant height (maize cultivar DKC 2931; 4 weeks): 59 cm
- Shoot weight (maize cultivar DKC 2931; 4 weeks): 4 g
- Leaf 5 (maize cultivar DKC 2931; 26 days): 43 cm
- Relative anthocyanin level ([2]; Arabidopsis pot, 4-week old plant, relative to low phosphate control (=1)): 0.7
- Phosphate level in soil (relative value) ([2]; Arabidopsis pot, Olsen P, after 4 weeks, relative to low phosphate control (=1)): 0.8
- Rosette size ([2]; Arabidopsis pot, low phosphate, 10 μM compound, 4 weeks): 17 cm^2
- Anthocyanin level in the leaves (in words) ([2]; plants grown in pots): reduced
